Patent US10010525B2, “Methods of inducing anesthesia” (The Regents of the University of California, priority 2012, dated 2018)

Columns and labels:
[1] = molecular target: T1, GABAA (α1β2γ2s) receptors (UniProt P14867+P18508+P63138); test: GABAA receptor two-electrode voltage clamp in oocytes at saturated drug concentration; assay type: cell-based, human α1, rat β2 and γ2s; conditions: for GABAA % Direct Effect: drug response without receptor agonist; for GABAA % Direct Effect / GABAA % Agonist Effect: percent of control agonist peak, mean ±SEM, 5-6 oocytes, saturated drug; for GABAA % Agonist Effect: drug with γ-aminobutyric acid; for GABAA Drug Response: drug+agonist versus control agonist peak; for GABAA receptor modulation (in words): saturating aqueous concentration
T1 construct: expressed in transfected cells; host or cells: Xenopus laevis oocytes (intranuclear plasmid injection, α1:β2:γ2 = 1:1:10)
T1 sequence (P14867 28-456): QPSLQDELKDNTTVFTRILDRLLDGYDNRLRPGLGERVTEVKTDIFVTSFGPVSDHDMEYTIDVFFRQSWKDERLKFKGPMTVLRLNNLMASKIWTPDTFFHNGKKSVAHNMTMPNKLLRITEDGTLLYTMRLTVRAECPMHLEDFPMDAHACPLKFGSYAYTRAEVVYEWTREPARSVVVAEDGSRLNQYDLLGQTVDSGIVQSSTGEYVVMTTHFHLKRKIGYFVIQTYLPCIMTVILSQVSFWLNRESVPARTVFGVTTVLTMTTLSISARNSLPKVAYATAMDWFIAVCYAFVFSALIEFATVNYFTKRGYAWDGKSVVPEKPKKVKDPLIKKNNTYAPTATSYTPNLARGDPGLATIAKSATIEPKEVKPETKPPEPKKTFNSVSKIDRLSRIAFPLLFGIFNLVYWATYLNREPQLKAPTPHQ
T1 sequence (P63138 25-474 limits assumed): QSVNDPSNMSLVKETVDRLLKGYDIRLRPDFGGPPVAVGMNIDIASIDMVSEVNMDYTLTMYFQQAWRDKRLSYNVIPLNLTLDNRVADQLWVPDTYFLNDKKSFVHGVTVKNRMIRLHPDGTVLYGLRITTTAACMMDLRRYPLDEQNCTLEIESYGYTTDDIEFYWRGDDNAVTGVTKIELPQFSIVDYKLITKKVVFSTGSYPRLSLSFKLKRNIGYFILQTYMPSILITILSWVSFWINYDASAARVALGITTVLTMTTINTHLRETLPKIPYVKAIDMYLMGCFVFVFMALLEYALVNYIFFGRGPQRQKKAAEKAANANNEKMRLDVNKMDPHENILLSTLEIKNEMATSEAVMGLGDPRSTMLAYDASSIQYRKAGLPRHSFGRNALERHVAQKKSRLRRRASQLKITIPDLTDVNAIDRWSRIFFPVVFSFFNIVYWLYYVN
T1 sequence (P18508 39-466): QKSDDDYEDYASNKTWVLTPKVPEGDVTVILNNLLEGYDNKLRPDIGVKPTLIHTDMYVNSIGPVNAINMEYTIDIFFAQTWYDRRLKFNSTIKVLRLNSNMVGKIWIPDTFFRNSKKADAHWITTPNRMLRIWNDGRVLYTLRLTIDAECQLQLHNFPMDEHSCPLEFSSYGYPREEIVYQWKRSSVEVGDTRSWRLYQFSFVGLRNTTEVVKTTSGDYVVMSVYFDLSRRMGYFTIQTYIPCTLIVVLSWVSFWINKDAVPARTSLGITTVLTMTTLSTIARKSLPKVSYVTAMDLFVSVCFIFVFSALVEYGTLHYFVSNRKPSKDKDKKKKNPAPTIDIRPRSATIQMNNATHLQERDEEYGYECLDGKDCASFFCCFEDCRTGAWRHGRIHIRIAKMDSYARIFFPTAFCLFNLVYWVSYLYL
Excerpt: (§1) GABAA (α1β2γ2s) or NMDA (NR1/NR2A) receptors were expressed in oocytes and studied using standard two-electrode voltage clamp techniques. Hydrocarbons from 14 different organic functional groups were studied at saturated concentrations, and compounds within each group differed only by the carbon number at the ω-position or within a saturated ring. An effect on GABAA or NMDA receptors was defined as a 10% or greater reversible current change from baseline that was statistically different from zero.
(§2) An ovary from tricaine-anesthetized Xenopus laevis frogs was surgically removed using a protocol approved by the Institutional Animal Care and Use Committee at the University of California, Davis. Following manual disruption of the ovarian lobule septae, the ovary was incubated in 0.2% Type I collagenase (Worthington Biochemical, Lakewood, N.J.) to defolliculate oocytes which were washed and stored in fresh and filtered modified Barth's solution composed of 88 mM NaCl, 1 mM KCl, 2.4 mM NaHCO3, 20 mM HEPES, 0.82 mM MgSO4, 0.33 mM Ca(NO3)2, 0.41 mM CaCl2, 5 mM sodium pyruvate, gentamycin, penicillin, streptomycin, and corrected to pH=7.4. All salts and antibiotics were A.C.S. grade (Fisher Scientific, Pittsburgh, Pa.).
(§3) Clones used were provided as a gift from Dr. R. A. Harris (University of Texas, Austin) and were sequenced and compared to references in the National Center for Biotechnology Information database to confirm the identity of each gene. GABAA receptors were expressed using clones for the human GABAA α1 and the rat GABAA β2 and γ2s subunits in pCIS-II vectors. […] In separate oocytes, glutamate receptors were expressed using rat NMDA NR1 clones in a pCDNA3 vector and rat NMDA NR2A clones in a Bluescript vector. RNA encoding each subunit was prepared using a commercial transcription kit (T7 mMessage mMachine, Ambion, Austin, Tex.) was mixed in a 1:1 ratio, and 1-10 ng of total RNA was injected into oocytes and studied 1-2 days later.
Oocytes were studied in a 250 μL linear-flow perfusion chamber with solutions administered by syringe pump at 1.5 ml/min with gastight glass syringes and Teflon tubing. Oocyte GABAA currents were studied using standard two-electrode voltage clamping techniques at a holding potential of […] using a 250 μL channel linear-flow perfusion chamber with solutions administered by syringe pump at 1.5 mL/min.
After FR perfusion for 5 min, oocytes were exposed to 30 sec FR-GABA followed by another 5 min FR washout; this was repeated until stable GABAA-elicited peaks were obtained. Next, FR containing a saturated solution of the study drug (Table 2)—or for gaseous study compounds a vapor pressure equal to 90% of barometric pressure with balance oxygen—was used to perfuse the oocyte chamber for 2 min followed by perfusion with a FR-GABA solution containing the identical drug concentration for 30 sec.
(§4) Modulating drug responses were calculated as the percent of the control (baseline) peak as follows: 100·ID/IB, where ID and IB were the peak currents measured during agonist+drug and agonist baseline perfusions, respectively. When present, direct receptor activation by a drug was similarly calculated as a percent of the agonist response. […] A lack of receptor response (cut-off) was defined as a<10% change from baseline current that was statistically indistinguishable from zero using a two-tailed Student t-test.

[2] = molecular target: T2, NMDA (NR1/NR2A) receptors (Rattus norvegicus, UniProt P35439+Q00959); test: NMDA receptor two-electrode voltage clamp in oocytes at saturated drug concentration; assay type: cell-based; conditions: for NMDA % Direct Effect: drug response without receptor agonist; for NMDA % Direct Effect / NMDA % Agonist Effect: percent of control agonist peak, mean ±SEM, 5-6 oocytes, saturated drug; for NMDA % Agonist Effect: drug with glutamate and glycine; for NMDA Drug Response: drug+agonist versus control agonist peak; for NMDA receptor modulation (in words): saturating aqueous concentration; for direct effect on NMDA receptors (in words): without glutamate and glycine agonist
T2 construct: expressed in transfected cells; host or cells: Xenopus laevis oocytes (RNA injection, 1:1)
T2 sequence (Q00959 23-1464, other chains not shown): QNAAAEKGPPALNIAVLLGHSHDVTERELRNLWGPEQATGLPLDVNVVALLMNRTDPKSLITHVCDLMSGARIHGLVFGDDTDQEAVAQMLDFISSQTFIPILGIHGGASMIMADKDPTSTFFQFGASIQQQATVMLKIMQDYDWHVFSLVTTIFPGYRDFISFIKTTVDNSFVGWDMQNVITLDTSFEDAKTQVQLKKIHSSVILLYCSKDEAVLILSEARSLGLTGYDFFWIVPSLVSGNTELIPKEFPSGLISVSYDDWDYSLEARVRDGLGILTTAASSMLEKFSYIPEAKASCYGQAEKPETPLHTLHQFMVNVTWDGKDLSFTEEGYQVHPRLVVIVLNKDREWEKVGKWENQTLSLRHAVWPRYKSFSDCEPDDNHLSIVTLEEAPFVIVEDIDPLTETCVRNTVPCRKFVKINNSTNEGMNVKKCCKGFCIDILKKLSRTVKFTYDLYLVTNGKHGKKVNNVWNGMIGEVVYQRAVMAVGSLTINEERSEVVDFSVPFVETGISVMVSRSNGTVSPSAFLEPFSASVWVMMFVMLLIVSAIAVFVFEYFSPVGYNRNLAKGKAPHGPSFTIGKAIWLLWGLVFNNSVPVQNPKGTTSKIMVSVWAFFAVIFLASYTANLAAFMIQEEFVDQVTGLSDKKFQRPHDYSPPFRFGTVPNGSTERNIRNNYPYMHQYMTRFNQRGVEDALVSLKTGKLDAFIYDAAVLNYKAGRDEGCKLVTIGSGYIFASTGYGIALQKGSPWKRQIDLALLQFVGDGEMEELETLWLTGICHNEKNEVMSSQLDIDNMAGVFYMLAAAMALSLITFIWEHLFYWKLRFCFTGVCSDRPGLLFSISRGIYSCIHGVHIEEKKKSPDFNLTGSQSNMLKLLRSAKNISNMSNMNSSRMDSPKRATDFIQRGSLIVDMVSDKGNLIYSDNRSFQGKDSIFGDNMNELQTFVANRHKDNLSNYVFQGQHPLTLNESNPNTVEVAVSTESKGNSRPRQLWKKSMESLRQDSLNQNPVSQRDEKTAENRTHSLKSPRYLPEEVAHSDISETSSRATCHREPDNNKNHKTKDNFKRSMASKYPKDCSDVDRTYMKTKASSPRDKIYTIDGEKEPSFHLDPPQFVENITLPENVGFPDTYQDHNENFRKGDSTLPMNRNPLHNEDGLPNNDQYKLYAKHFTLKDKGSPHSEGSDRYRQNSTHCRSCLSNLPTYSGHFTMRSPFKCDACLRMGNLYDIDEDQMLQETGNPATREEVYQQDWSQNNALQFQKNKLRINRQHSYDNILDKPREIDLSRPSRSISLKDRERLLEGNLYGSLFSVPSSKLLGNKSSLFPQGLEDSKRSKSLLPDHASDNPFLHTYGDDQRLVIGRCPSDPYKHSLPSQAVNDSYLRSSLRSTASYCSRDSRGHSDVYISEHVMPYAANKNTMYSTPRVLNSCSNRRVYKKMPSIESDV
Excerpt: as §1, §2, §3
Briefly, baseline perfusion solutions were the same as for GABAA with the substitution of equimolar BaCl2 for calcium salts and the addition of 0.1 mM EGTA; this constituted barium frog Ringer's solution (BaFR). Agonist solutions for NMDA studies also contained 0.1 mM glutamate (E) and 0.01 mM glycine (G) to constitute a BaFREG solution.
The syringe pump and perfusion chamber apparatus as well as the clamp holding potential and baseline-agonist exposure protocols were identical to that described for the GABAA studies. The same test compounds, concentrations, and preparative methods were used in NMDA voltage clamp studies as in the GABAA voltage clamp studies (Table 2).
as §4

GABAA % Direct Effect [1] | GABAA % Agonist Effect [1] [%] | NMDA % Direct Effect [2] | NMDA % Agonist Effect [2] [%] | Molecule | GABAA Drug Response [1] | NMDA Drug Response [2] | GABAA receptor modulation (in words) [1] | NMDA receptor modulation (in words) [2] | direct effect on NMDA receptors (in words) [2] | NMDA receptor modulation (in words) ([2]; listed as n-butane)
none | 285 ± 18 | none | 90 ± 1 | CCCCCCCC(=O)OCC [ethyl octanoate] | + (potentiation (+) for drug+agonist responses greater than the control agonist peak) | – | – | – | – | –
none | 219 ± 29 | none | 104 ± 2 | CCCCCCCCC=O [nonanal] | + (potentiation (+) for drug+agonist responses greater than the control agonist peak) | 0 (no response (0) for drug+agonist responses that differ by <10% from the control agonist peak) | – | – | – | –
– | – | – | – | OCC(F)(F)C(F)(F)C(F)(F)C(F)(C(F)(F)F)C(F)(F)F [1-Hexanol, 2,2,3,3,4,4,5,6,6,6-decafluoro-5-(trifluoromethyl)-] | – | – | GABA-A receptor agonist | weak NMDA receptor antagonist | – | –
3 ± 2% | 196 ± 11 | none | 83 ± 2 | C1CCCC1 [cyclopentane] | + (potentiation (+) for drug+agonist responses greater than the control agonist peak) | – | – | – | – | –
none | 166 ± 7 | none | 108 ± 1 | CCCCCCCCCCCCCCCCCCCCN [1-eicosanamine] | + (potentiation (+) for drug+agonist responses greater than the control agonist peak) | 0 (no response (0) for drug+agonist responses that differ by <10% from the control agonist peak) | – | – | – | –
none | 325 ± 30 | none | 97 ± 3 | CCCCCCCCCCC(C)=O [2-dodecanone] | + (potentiation (+) for drug+agonist responses greater than the control agonist peak) | 0 (no response (0) for drug+agonist responses that differ by <10% from the control agonist peak) | – | – | – | –
none | 181 ± 13 | none | 101 ± 2 | CCCCCCCCCCCO [1-undecanol] | + (potentiation (+) for drug+agonist responses greater than the control agonist peak) | 0 (no response (0) for drug+agonist responses that differ by <10% from the control agonist peak) | – | – | – | –
none | 159 ± 5 | none | 97 ± 3 | CCCCCCCCCC=O [decanal] | + (potentiation (+) for drug+agonist responses greater than the control agonist peak) | 0 (no response (0) for drug+agonist responses that differ by <10% from the control agonist peak) | – | – | – | –
none | 177 ± 4 | none | 98 ± 1 | CCCCCCCCCCCCO [1-dodecanol] | + (potentiation (+) for drug+agonist responses greater than the control agonist peak) | 0 (no response (0) for drug+agonist responses that differ by <10% from the control agonist peak) | – | – | – | –
5 ± 2% | 418 ± 21 | none | 41 ± 6 | C#CCCCC [1-hexyne] | + (potentiation (+) for drug+agonist responses greater than the control agonist peak) | – | – | – | – | –
– | – | – | – | N-methylpiperadine | – | – | – | – | direct activation of NMDA receptors | –
none | 259 ± 11 | none | 96 ± 2 | C#CCCCCCC [1-octyne] | + (potentiation (+) for drug+agonist responses greater than the control agonist peak) | 0 (no response (0) for drug+agonist responses that differ by <10% from the control agonist peak) | – | – | – | –
none | 211 ± 9 | none | 97 ± 2 | CCCCCOCCCCC [dipentylether] | + (potentiation (+) for drug+agonist responses greater than the control agonist peak) | 0 (no response (0) for drug+agonist responses that differ by <10% from the control agonist peak) | – | – | – | –
– | – | – | – | CN1CCOCC1 [4-methylmorpholine] | – | – | – | – | direct activation of NMDA receptors | –
none | 476 ± 52 | none | 81 ± 1 | CCCCCCCCC(C)=O [2-decanone] | + (potentiation (+) for drug+agonist responses greater than the control agonist peak) | – | – | – | – | –
8 ± 2% | 290 ± 41 | none | 102 ± 3 | CCCCCCS [1-hexanethiol] | + (potentiation (+) for drug+agonist responses greater than the control agonist peak) | 0 (no response (0) for drug+agonist responses that differ by <10% from the control agonist peak) | – | did not | – | –
none | 172 ± 8 | none | 68 ± 10 | C#CCCCCC [1-heptyne] | + (potentiation (+) for drug+agonist responses greater than the control agonist peak) | – | – | – | – | –

Molecule | GABAA % Direct Effect [1] | GABAA % Agonist Effect [1] [%] | NMDA % Direct Effect [2] | NMDA % Agonist Effect [2] [%] | GABAA Drug Response [1] | NMDA Drug Response [2] | GABAA receptor modulation (in words) [1] | NMDA receptor modulation (in words) [2] | direct effect on NMDA receptors (in words) [2] | NMDA receptor modulation (in words) ([2]; listed as n-butane)
CCCCCCCCCC(=O)OCC [ethyl decanoate] | none | 137 ± 2 | none | 98 ± 1 | + (potentiation (+) for drug+agonist responses greater than the control agonist peak) | 0 (no response (0) for drug+agonist responses that differ by <10% from the control agonist peak) | – | – | – | –
C=CCCC [1-pentene] | 2 ± 3% | 453 ± 38 | none | 69 ± 1 | + (potentiation (+) for drug+agonist responses greater than the control agonist peak) | – | – | – | – | –
CCCCCCCCCCCCCCCCCCN [1-octadecanamine] | none | 146 ± 5 | none | 73 ± 4 | + (potentiation (+) for drug+agonist responses greater than the control agonist peak) | – | – | – | – | –
CCCC [butane] | none | 623 ± 68 | none | 7 ± 2 | + (potentiation (+) for drug+agonist responses greater than the control agonist peak) | – | positively modulate | negatively modulates | – | almost completely inhibited NMDA receptor currents
